EC50 data for 49 compounds are collected here from BindingDB's records for doi:10.7270/Q2TX3CTT (Broad Institute, 2010).

Broadly, the EC50 is the concentration that produces a half-maximal response.

Where a name gives a salt, the structure may show the parent alone.

For this assay, the target named is Glycogen synthase kinase-3 beta (Homo sapiens, UniProt P49841). As to the kind of experiment: GSK3beta kinase inhibitor potency, dose response, biochemical, luminescence, cell-free homogeneous, retest (AID 434954).
Chain of Glycogen synthase kinase-3 beta (P49841 whole entry): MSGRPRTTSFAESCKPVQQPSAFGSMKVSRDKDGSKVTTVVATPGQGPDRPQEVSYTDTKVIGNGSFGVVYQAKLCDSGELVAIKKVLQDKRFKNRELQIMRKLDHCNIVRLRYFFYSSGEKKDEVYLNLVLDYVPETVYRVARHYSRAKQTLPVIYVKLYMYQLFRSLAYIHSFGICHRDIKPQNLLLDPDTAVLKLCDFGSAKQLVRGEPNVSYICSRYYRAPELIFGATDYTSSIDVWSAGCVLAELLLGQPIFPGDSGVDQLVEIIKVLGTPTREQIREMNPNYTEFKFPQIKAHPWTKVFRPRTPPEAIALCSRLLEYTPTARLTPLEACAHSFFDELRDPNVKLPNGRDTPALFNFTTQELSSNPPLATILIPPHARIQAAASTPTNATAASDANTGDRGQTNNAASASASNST
For `O=C(Nc1ccc(O)c2c(=O)cc(-c3ccccc3Cl)oc12)c1ccc(F)cc1` [N-[2-(2-chlorophenyl)-5-oxidanyl-4-oxidanylidene-chromen-8-yl]-4-fluoranyl-benzamide], the concentration for a half-maximal effect (EC50) was 13.9 µM.
In the case of `COc1cc(CN=O)ccc1Oc1ccc([N+](=O)[O-])cc1[N+](=O)[O-]` [N-[[4-(2,4-dinitrophenoxy)-3-methoxyphenyl]methylidene]hydroxylamine], the EC50 is over 300 µM.
Regarding `Fc1cccc(Nc2ncnc3n[nH]cc23)c1` [MLS001033418], the EC50 was 32.4 µM.
In the case of `C=CCN=C(NC#N)SCC(=O)NC(C)(C)C` [MLS000078466], the EC50 is over 300 µM.
Consider `COc1ccc2c(c1)-c1c(ssc1=S)C(C)(C)N2` [SMR000116363], for which the concentration giving a half-maximal response (EC50) was 6.72 µM.
Consider `COc1cccc(C(=O)Nc2nc3ccccc3s2)c1` [N-Benzothiazol-2-yl-3-methoxy-benzamide], for which the 50% effective concentration (EC50) was over 300 µM.
Then `O=C(Nc1cccnc1)Nc1ccccn1` [MLS000104821], with over 300 µM; and `Cc1ccccc1C(=O)Nc1ccc(O)c2c(=O)cc(-c3ccccc3Cl)oc12` [MLS000518806], with over 300 µM; and `Cc1cc2oc(=O)cc(Cn3ccnc3)c2cc1O` [6-hydroxy-4-(imidazol-1-ylmethyl)-7-methylchromen-2-one], with over 300 µM.
For `COc1ccc(-c2nn(-c3ccccc3)cc2/C=C(\C#N)S(=O)(=O)c2ccccc2)cc1OC` [(E)-2-(benzenesulfonyl)-3-[3-(3,4-dimethoxyphenyl)-1-phenyl-4-pyrazolyl]-2-propenenitrile], the 50% effective concentration (EC50) was over 300 µM.
Regarding `O=S(=O)(c1ccc(F)cc1)c1nc(-c2ccco2)oc1Nc1ccccc1` [4-(4-fluorophenyl)sulfonyl-2-(furan-2-yl)-N-phenyl-1,3-oxazol-5-amine], the EC50 is over 300 µM.
For `N#Cc1c(-c2ccc(F)cc2)nc(-c2ccccc2)[nH]c1=O`, the concentration giving a half-maximal response (EC50) was over 300 µM.
`Cc1cccc(Nc2nc(N)c([N+](=O)[O-])c(NCc3ccccc3)n2)c1` [MLS000332785]: the midpoint of the response, the EC50, lay at 21.4 µM.
Regarding `Nc1ncnc2c1ncn2[C@@H]1O[C@H](CO)[C@@H](O)[C@H]1N`, the EC50 was over 300 µM.
Compound `Cc1ccc(C)c(CSc2nnc(-c3cccnc3)o2)c1` [MLS000074430] returned an EC50 of over 300 µM.
Regarding `COc1ccc(C(=O)c2sc(Nc3ccccc3)nc2N)cc1OC` [MLS001202046], the EC50 was found to be 0.358 µM. In other words, the sub-micromolar range.
As to `C[n+]1ccccc1C=Cc1cc(Br)ccc1O` [SMR000554448], the concentration for a half-maximal effect (EC50) is over 300 µM.
Then `Cc1c(C(=O)OCCOc2ccccc2)[nH]c2c1C(=O)CCC2` [MLS000090901], with 10.9 µM.
`COc1ccc(-c2nn(-c3ccccc3)cc2/C=C/C(=O)N2CCOCC2)cc1OC` [MLS001017845]: the EC50 was over 300 µM.
Consider `CN1CC(=O)Nc2ccc([N+](=O)[O-])cc2C1=O`, for which the half-maximal effective concentration (EC50) is over 300 µM.
To `CCn1c(COc2ccccc2)nnc1SCC(=O)NC1CC1` belongs over 300 µM.
In turn, `Cc1cccc(C(=O)NCC(c2ccco2)N2CCc3ccccc32)c1` (centres undefined) [MLS001237444] gave an EC50 of over 300 µM.
To `COCCn1c(SCC(=O)Nc2ncc(Cl)c(C)c2Cl)nc2ccccc21` [MLS000097567] belongs over 300 µM; to `O=c1cc(-c2ccccc2Cl)oc2c([N+](=O)[O-])c(O)cc(O)c12` [MLS000518336], 2.58 µM; to `O=C(O)c1cccc(Nc2nc(-c3ccccc3)nc3ccccc23)c1` [SMR000538934], over 300 µM.
`CCC(=O)Nc1nn(CC(C)C)c2nc3ccc(C)cc3cc12` [N-[6-methyl-1-(2-methylpropyl)pyrazolo[3,4-b]quinolin-3-yl]propanamide] displayed an EC50 of over 300 µM.
For `CC(C)Nc1nc(-c2ccncc2)nc(-c2ccc(Cl)cc2)c1C#N` [SMR000333194], the EC50 is over 300 µM.
For the compound `CCOC(=O)C1CCN(CC(O)COC(CC)c2ccccc2)CC1` (centres undefined) [ethyl 1-[2-oxidanyl-3-(1-phenylpropoxy)propyl]piperidine-4-carboxylate;hydrochloride], the concentration for a half-maximal effect (EC50) is over 300 µM.
The compound `Cc1ccc(-n2nc3c(N4CCC(C(=O)N5CCCCCC5)CC4)nnc(C)c3c2C)cc1` [MLS001028811] gave an EC50 of over 300 µM.
Consider `COc1ccc(Nc2nc(-c3ccncc3)nc3ccccc23)cc1` [N-(4-methoxyphenyl)-2-pyridin-4-ylquinazolin-4-amine], for which the EC50 was over 300 µM.
With `O=Cc1cn(CCC(=O)O)nc1-c1cccc2ccccc12` [3-(4-formyl-3-naphthalen-1-ylpyrazol-1-yl)propanoic acid], the 50% effective concentration (EC50) is over 300 µM.
To `CN(C)Cc1c(C(=O)NN=Cc2ccoc2)nnn1-c1nonc1N` [1-(4-amino-1,2,5-oxadiazol-3-yl)-5-[(dimethylamino)methyl]-N-(3-furanylmethylideneamino)-4-triazolecarboxamide] belongs 2.18 µM; to `C=c1cc2[nH]c(=O)c(=Cc3ccc(OCC)c(OC)c3)c(=N)n2o1` [SMR000309341], over 300 µM; to `COC(=O)c1sccc1NC(=O)c1ccc(Br)s1` [3-[(5-bromothiophene-2-carbonyl)amino]thiophene-2-carboxylic acid methyl ester], over 300 µM.
In turn, `CN(C)c1nc(N)c([N+](=O)[O-])c(NCC2CCCO2)n1` (centres undefined) [SMR000436172] yielded an EC50 of over 300 µM.
To `Cc1nn(-c2ccccn2)c2c1C(c1ccncc1)C1C(=O)CC(C)(C)CC1=N2` (centres undefined) [SMR000152057] belongs over 300 µM.
`COc1ccc(Cl)cc1-c1nc(N)nc(N(C)C)n1` [MLS000698391] had an EC50 of over 300 µM.
In turn, `COC(CSc1nc(N)c2c3c(sc2n1)CN(C)CC3)OC` [SMR000543145] displayed a 50% effective concentration (EC50) of over 300 µM.
Compound `COCCN(CC(=O)NCc1ccc(OC)cc1)C(=O)CCC(=O)Nc1nccs1` [MLS000032576] gave an EC50 of over 300 µM.
`O=C(OCCN1CCCCC1)c1ccc(O)cc1` [4-hydroxybenzoic acid 2-(1-piperidinyl)ethyl ester] registered a concentration for a half-maximal effect (EC50) of over 300 µM.
Take `COCCCNc1nc(N)c([N+](=O)[O-])c(NCC2CCCO2)n1` (centres undefined): the EC50 turned out to be 3.93 µM. This lies in the single-digit micromolar range.
To `CC1CCCC(NC(=O)C2CCN(C(=O)Nc3ccccc3)CC2)C1C` (centres undefined) [N4-(2,3-dimethylcyclohexyl)-N1-phenyl-piperidine-1,4-dicarboxamide] belongs over 300 µM; to `CC(CC(=O)Nc1cc(C)ccn1)=NNC(=O)C(=O)NC(C)C` [N'-[[4-[(4-methylpyridin-2-yl)amino]-4-oxidanylidene-butan-2-ylidene]amino]-N-propan-2-yl-ethanediamide], over 300 µM; to `O=C(O)c1ccccc1C(=O)Nc1nccs1` [2-(1,3-thiazol-2-ylcarbamoyl)benzoic acid], over 300 µM.
In the case of `O=C(CCS(=O)(=O)c1ccc(Br)cc1)Nc1ccc(Cl)cc1F` [3-(4-bromophenyl)sulfonyl-N-(4-chloranyl-2-fluoranyl-phenyl)propanamide], the concentration for a half-maximal effect (EC50) was over 300 µM.
Regarding `O=C(Nc1ncc(Cc2ccccc2Cl)s1)C1CCCO1` (centres undefined) [Tetrahydro-furan-2-carboxylic acid [5-(2-chloro-benzyl)-thiazol-2-yl]-amide], a half-maximal effect (EC50) was put at 27.6 µM.
As for `COc1ccccc1Nc1nc(NCCO)nc(N)c1[N+](=O)[O-]`, the EC50 was 87.6 µM.
Then `COc1cc(/C=N/NC(=O)c2ccccc2F)ccc1Oc1ccc([N+](=O)[O-])cn1` [MLS000779573], with over 300 µM; and `CN(C)CCCNc1nc(N)c([N+](=O)[O-])c(NC2CCCCC2)n1` [MLS001213448], with 3.15 µM.
